# Experimental data reported in patent US20230158161A1, “DRUG DELIVERY SYSTEMS COMPRISING AN INTRAOCULAR PRESSURE LOWERING AGENT, A NEUROTROPHIC AGENT, A C-TYPE NATRIURETIC PEPTIDE, A NATRIURETIC PEPTIDE RECEPTOR-B, AN APOPTOSIS SIGNALING FRAGMENT INHIBITOR OR A FAS-LIGAND INHIBITOR FOR TREATING GLAUCOMA OR OCULAR HYPERTENSION” (Cella Therapeutics, LLC, priority 2020, published 2023).
# Tested on: African Green monkeys
# Assay: IOP after intravitreal injection in African Green monkeys, PBS in the fellow eye as control
# Format: in vivo, African Green monkey
# Procedure: Eight African Green monkeys were screened to identify 4 animals with high-normal IOP. Animals were anesthetized with ketamine 10 mg/kg and Xylazine 0.5 mg/kg. Bimatoprost acid 100 ng in 50 μl was injected intravitreally in one eye through a 30-gauge syringe using a shelved technique, and 50 μl of phosphate buffered saline (PBS) was injected into the fellow eye as a concurrent control on days 0, 1, 2 at 8:30 pm. The bimatoprost acid dose was escalated to 200 ng in 100 μl, with the same volume of PBS given to the fellow eye, on days 3 (8:30 pm) and 4 (5:30 pm). IOP was measured with a Tonovet tonometer at 8:30 am, 11:30 am and 8:30 pm on day 1; 8:30 am, 11:30 am and 5:30 pm on day 4; and at 8:30 am on days 2, 3 and 5. The person measuring the IOP was masked to treatment assignment. Slit lamp exams were performed on day 0, 1 and 5. OCTs were performed at baseline and day 5.
structure (smiles),measurement,setting,value
O=C(O)CCC/C=C\C[C@@H]1[C@@H](/C=C/[C@@H](O)CCc2ccccc2)[C@H](O)C[C@@H]1O [bimatoprost acid],reduction in IOP compared with the fellow eye,"100 ng intravitreal, one of four animals (B392) responded, at 1 timepoint",30%
same,IOP reduced in the treated eye compared with the fellow eye receiving PBS,"200 ng intravitreal, animal B392, day 5",52%
same,reduction in IOP compared with the fellow eye,"200 ng intravitreal, three of four animals responded, at 1 or more timepoints",30%
same,IOP response,"animal B300, 100 ng and 200 ng intravitreal",did not respond to either dose
same,"IOP lowering effect, overall conclusion","intravitreal, dose-response between the 100 ng and 200 ng doses",clear IOP lowering-effect
